Here are results for 58 compounds from US11008301B2, “Piperidinone formyl peptide 2 receptor agonists” (BRISTOL-MYERS SQUIBB COMPANY, priority 2017, dated 2021).

“And” between values parts separate entries of the source, which are not always exact repeats. Identical values can stand only once. Where only a bound is given, the exact number is not on record here.

Sequence of human FPR2 (P25090 whole entry): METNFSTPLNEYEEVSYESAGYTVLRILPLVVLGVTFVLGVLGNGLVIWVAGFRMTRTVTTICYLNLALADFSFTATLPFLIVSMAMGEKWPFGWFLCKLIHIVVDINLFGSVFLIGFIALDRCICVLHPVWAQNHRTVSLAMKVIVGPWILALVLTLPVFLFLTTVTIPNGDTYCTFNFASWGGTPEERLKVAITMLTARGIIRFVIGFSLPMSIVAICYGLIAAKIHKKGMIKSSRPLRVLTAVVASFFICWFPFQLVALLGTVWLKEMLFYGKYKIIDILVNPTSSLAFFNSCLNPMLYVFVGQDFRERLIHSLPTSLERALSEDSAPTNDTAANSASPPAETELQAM

In this assay the target is human FPR2 (Homo sapiens (Human), UniProt P25090). Kind of assay: FPR2 cyclic adenosine monophosphate (cAMP) assay. The format is cell-based. As to conditions: CHO cells overexpressing human FPR2; cAMP assay; read-out: hFPR2 agonist activity EC50 (hFPR2 Assay). The protocol:
FPR2 and FPR1 Cyclic Adenosine Monophosphate (cAMP) Assays. A mixture of forskolin (5 μM final for FPR2 or 10 μM final for FPR1) and IBMX (200 μM final) were added to 384-well Proxiplates (Perkin-Elmer) pre-dotted with test compounds in DMSO (1% final) at final concentrations in the range of 1.7 nM to 100 μM. Chinese Hamster Ovary cells (CHO) overexpressing human FPR1 or human FPR2 receptors were cultured in F-12 (Ham's) medium supplemented with 10% qualified FBS, 250 μg/ml zeocin and 300 μg/ml hygromycin (Life Technologies). Reactions were initiated by adding 2,000 human FPR2 cells per well or 4,000 human FPR1 cells per well in Dulbecco's PBS (with calcium and magnesium) (Life Technologies) supplemented with 0.1% BSA (Perkin-Elmer). The reaction mixtures were incubated for 30 min at room temperature. The level of intracellular cAMP was determined using the HTRF HiRange cAMP assay reagent kit (Cisbio) according to manufacturer's instruction. Solutions of cryptate conjugated anti-cAMP and d2 flurorophore-labelled cAMP were made in a supplied lysis buffer separately. Upon completion of the reaction, the cells were lysed with equal volume of the d2-cAMP solution and anti-cAMP solution. After a 1-h room temperature incubation, time-resolved fluorescence intensity was measured using the Envision (Perkin-Elmer) at 400 nm excitation and dual emission at 590 nm and 665 nm. A calibration curve was constructed with an external cAMP standard at concentrations ranging from 1 μM to 0.1 pM by plotting the fluorescent intensity ratio from 665 nm emission to the intensity from the 590 nm emission against cAMP concentrations. The potency and activity of a compound to inhibit cAMP production was then determined by fitting to a 4-parametric logistic equation from a plot of cAMP level versus compound concentrations.
In general terms: Cyclic AMP is a second messenger, typically raised through Gs and lowered through Gi signalling.
With `CS(=O)(=O)C1CCN(c2ccc(N3CCC[C@@H](NC(=O)Nc4ccc(Cl)cc4)C3=O)c(F)c2F)C1` (stereo partly shown) [Example 87], the EC50 was ≤ 0.01 µM.
As for `CS(=O)(=O)C1CCN(c2ccc(N3CCC[C@@H](NC(=O)Nc4ccc(C(F)(F)F)cc4)C3=O)cc2)C1` (stereo partly shown) [Example 108], the half-maximal effective concentration (EC50) is ≤ 0.01 µM.
As for `O=C(Nc1ccc(C(F)(F)F)cc1)N[C@@H]1CCCN(c2ccc(N3CC[C@@H](O)C3)nc2)C1=O` [Example 55], the EC50 lay within 0.01 to 0.1 µM.
The figure for `CN(CC(F)(F)F)C1CCN(c2ccc(N3CCC[C@@H](NC(=O)Nc4ccc(Cl)cc4)C3=O)c(F)c2F)C1` (stereo partly shown) [Example 85] is ≤ 0.01 µM; for `CC(C)[C@@H]1COCCN1c1ccc(N2CCC[C@@H](NC(=O)Nc3ccc(C(F)(F)F)cc3)C2=O)cc1` [Example 39] it is ≤ 0.01 µM.
On to `O=C(Nc1ccc(Cl)cc1F)N[C@@H]1CCCN(c2ccc(N3CCCCC3=O)c(F)c2F)C1=O` [Example 80], for which the EC50 was ≤ 0.01 µM.
With `CN1CCN(c2ccc(N3CCC[C@@H](NC(=O)Nc4ccc(C(F)(F)F)cc4)C3=O)cc2)CC1` [Example 44], the EC50 lay within 0.01 to 0.1 µM.
For the compound `O=C(Nc1ccc(Cl)cc1)N[C@@H]1CCCN(c2ccc(N3C[C@@H](F)[C@@H](F)C3)cc2)C1=O` [Example 98], the concentration giving a half-maximal response (EC50) is ≤ 0.01 µM.
Under `COC[C@@H]1CCCN1c1ccc(N2CCC[C@@H](NC(=O)Nc3ccc(C(F)(F)F)nc3)C2=O)cc1` [Example 25] stands 0.01 to 0.1 µM.
Turning to `O=C(Nc1ccc(C(F)(F)F)cc1)N[C@@H]1CCCN(c2ccc(N3CCOCC3)cc2F)C1=O` [Example 53], the half-maximal effective concentration (EC50) lay in the range of 0.01 to 0.1 µM.
Under `C[C@@H]1COCCN1c1ccc(N2CCC[C@@H](NC(=O)Nc3ccc(C(F)(F)F)cn3)C2=O)cc1` [Example 48] stands 0.1 to 1 µM; under `O=C(Nc1ccc(C(F)(F)F)cc1)N[C@@H]1CCCN(c2ccc(N3CCCC(O)C3)cc2)C1=O` (stereo partly shown) [Example 31], 0.01 to 0.1 µM; under `O=C(Nc1ccc(C(F)(F)F)cc1)N[C@H]1CCCN(c2ccc(N3CCCC(O)C3)cc2)C1=O` (stereo partly shown) [Example 32], 0.1 to 1 µM.
The figure for `COC1CCN(c2ccc(N3CCC[C@@H](NC(=O)Nc4ccc(C(F)(F)F)cc4)C3=O)cc2)CC1` [Example 30] is ≤ 0.01 µM; for `CC1(O)CCCN(c2ccc(N3CCC[C@@H](NC(=O)Nc4ccc(Cl)cc4)C3=O)cc2)C1` (stereo partly shown) [Example 93] it is ≤ 0.01 µM.
The figure for `COCC1COCCN1c1ccc(N2CCC[C@@H](NC(=O)Nc3ccc(C(F)(F)F)cc3)C2=O)cc1` (stereo partly shown) [Example 13] is ≤ 0.01 µM; for `CN(C)C(=O)C1CCN(c2ccc(N3CCC[C@@H](NC(=O)Nc4ccc(Cl)cc4F)C3=O)cc2)C1` (stereo partly shown) [Example 86] it is ≤ 0.01 µM; for `COc1ccc(NC(=O)N[C@@H]2CCCN(c3ccc(N4CCOC[C@H]4C)cc3)C2=O)cc1` [Example 36] it is 0.01 to 0.1 µM.
`CC1CCCN(c2ccc(N3CCC[C@@H](NC(=O)Nc4ccc(C(F)(F)F)cc4)C3=O)cc2)C1` (stereo partly shown) [Example 38]: the 50% effective concentration (EC50) was ≤ 0.01 µM.
Consider `O=C(Nc1ccc(C(F)(F)F)cc1)N[C@@H]1CCCN(c2ccc(N3CCC(F)(F)C3)cc2)C1=O` [Example 68], for which the EC50 is ≤ 0.01 µM.
Turning to `COCC1COCCN1c1ccc(N2CCC[C@@H](NC(=O)Nc3ccc(C(F)(F)F)cc3)C2=O)cc1` (stereo partly shown) [Example 21], the EC50 was ≤ 0.01 µM.
The figure for `COC1CCN(c2ccc(N3CCC[C@@H](NC(=O)Nc4ccc(Cl)cc4)C3=O)cc2)C1` (stereo partly shown) [Example 76] is ≤ 0.01 µM; for `O=C(Nc1ccc(Cl)cc1)N[C@@H]1CCCN(c2ccc(N3CCC4(CCCO4)CC3)cc2)C1=O` [Example 101] it is ≤ 0.01 µM; for `CC1CCN(c2ccc(N3CCC[C@@H](NC(=O)Nc4ccc(C(F)(F)F)cc4)C3=O)cc2)CC1` [Example 41] it is 0.01 to 0.1 µM.
In the case of `O=C(Nc1ccc(C(F)(F)F)cc1)N[C@@H]1CCCN(c2ccc(N3CCCC(O)C3)nc2)C1=O` (stereo partly shown) [Example 60], the EC50 fell in the range of 0.01 to 0.1 µM.
For `CCN1CCN(c2ccc(N3CCC[C@@H](NC(=O)Nc4ccc(C(F)(F)F)cc4)C3=O)cc2)CC1` [Example 42], the EC50 was 0.01 to 0.1 µM.
For `C[C@H]1COCCN1c1ccc(N2CCC[C@@H](NC(=O)Nc3ccc(C(F)(F)F)cc3)C2=O)cc1` [Example 37], the EC50 is 0.01 to 0.1 µM.
With `O=C(Nc1ccc(C(F)(F)F)nc1)N[C@@H]1CCCN(c2ccc(N3[C@@H]4CC[C@H]3COC4)nc2)C1=O` [Example 62], the EC50 lay in the range of 0.1 to 1 µM.
Take `O=C(Nc1ccc(C(F)(F)F)cc1)N[C@@H]1CCCN(c2ccc(N3CCCCC3=O)cc2F)C1=O` [Example 52]: the EC50 was in the range of 0.01 to 0.1 µM.
As to `O=C(Nc1ccc(C(F)(F)F)cc1)N[C@@H]1CCCN(c2ccc(N3CCCC3=O)cc2)C1=O` [Example 2], the EC50 was in the range of 0.01 to 0.1 µM.
For `O=C(Nc1ccc(C(F)(F)F)cc1)N[C@@H]1CCCN(c2ccc(N3CC[C@H](O)C3)cc2)C1=O` [Example 3], the concentration giving a half-maximal response (EC50) was 0.01 to 0.1 µM.
On to `O=C(Nc1ccc(C(F)(F)F)cc1)N[C@@H]1CCCN(c2ccc(N3CCCC(F)C3)nc2)C1=O` (stereo partly shown) [Example 57], for which the EC50 fell in the range of 0.01 to 0.1 µM.
As to `O=C(Nc1ccc(Cl)cc1F)N[C@@H]1CCCN(c2ccc(N3CC[C@@H](F)C3)c(F)c2F)C1=O` [Example 88], the half-maximal effective concentration (EC50) was ≤ 0.01 µM.
As to `O=C(Nc1ccc(C(F)(F)F)cc1)N[C@@H]1CCCN(c2ccc(N3CCCC(C(F)(F)F)C3)cc2)C1=O` (stereo partly shown) [Example 72], the EC50 is ≤ 0.01 µM.
With `O=C(Nc1ccc(Cl)cc1)N[C@@H]1CCCN(c2ccc(N3CCCC(CO)C3)cc2)C1=O` (stereo partly shown) [Example 78], the EC50 was ≤ 0.01 µM.
As to `COC1CCN(c2ccc(N3CCC[C@@H](NC(=O)Nc4ccc(C(F)(F)F)cc4)C3=O)cn2)CC1` [Example 58], the EC50 is 0.01 to 0.1 µM.
For the compound `C[C@@H]1COCCN1c1ccc(N2CCC[C@@H](NC(=O)Nc3ccc(C(F)(F)F)cc3)C2=O)cc1` [Example 35], the EC50 was ≤ 0.01 µM.
The figure for `O=C(Nc1ccc(C(F)(F)F)cc1)N[C@@H]1CCCN(c2ccc(N3CCN(CCO)CC3)nc2)C1=O` [Example 61] is 0.01 to 0.1 µM.
As to `O=C(Nc1ccc(C(F)(F)F)cc1)N[C@@H]1CCCN(c2ccc(N3CC4(COC4)C3)cc2)C1=O` [Example 10], the EC50 was 0.01 to 0.1 µM.
Under `CS(=O)(=O)C1CCN(c2cc(F)c(N3CCC[C@@H](NC(=O)Nc4ccc(Cl)cc4F)C3=O)c(F)c2)C1` (stereo partly shown) [Example 90] stands ≤ 0.01 µM; under `O=C(Nc1ccc(C(F)(F)F)cn1)N[C@@H]1CCCN(c2ccc(N3CCCCC3=O)cc2)C1=O` [Example 49], 0.1 to 1 µM.
Consider `O=C(Nc1ccc(Cl)cc1F)N[C@@H]1CCCN(c2ccc(N3CC[C@@H](O)C3)nc2)C1=O` [Example 106], for which the half-maximal effective concentration (EC50) was ≤ 0.01 µM.
For the compound `CC1(C)CCN(c2ccc(N3CCC[C@@H](NC(=O)Nc4ccc(C(F)(F)F)cc4)C3=O)cc2)CC1` [Example 40], the EC50 was in the range of 0.01 to 0.1 µM.
The figure for `O=C(Nc1cnc(C(F)(F)F)cn1)N[C@@H]1CCCN(c2ccc(N3CCC(F)(F)C3)cc2)C1=O` [Example 67] is ≤ 0.01 µM and 0.01 to 0.1 µM.
As to `O=C(Nc1ccc(C(F)(F)F)cn1)N[C@@H]1CCCN(c2ccc(N3CCCCC3=O)cc2F)C1=O` [Example 51], the EC50 is 0.1 to 1 µM.
`O=C(Nc1ccc(C(F)(F)F)cc1)N[C@@H]1CCCN(c2ccc(N3CCOCC3)cc2)C1=O` [Example 46]: the concentration giving a half-maximal response (EC50) is ≤ 0.01 µM.
The figure for `CC1(F)CCN(c2ccc(N3CCC[C@@H](NC(=O)Nc4ccc(Cl)cc4)C3=O)cc2)CC1` [Example 99] is ≤ 0.01 µM; for `CN(C)C1CCN(c2ccc(N3CCC[C@@H](NC(=O)Nc4ccc(Cl)cc4)C3=O)c(F)c2F)C1` (stereo partly shown) [Example 75] it is ≤ 0.01 µM.
Take `CN(C)C1CN(c2ccc(N3CCC[C@@H](NC(=O)Nc4ccc(C(F)(F)F)cc4)C3=O)cc2)CC1F` (stereo partly shown) [Example 84]: the EC50 was ≤ 0.01 µM.
Regarding `O=C(Nc1ccc(Cl)cc1F)N[C@@H]1CCCN(c2ccc(N3CC[C@@H](F)C3)cc2)C1=O` [Example 82], the concentration giving a half-maximal response (EC50) was ≤ 0.01 µM.
Turning to `COCC1CCCCN1c1ccc(N2CCC[C@@H](NC(=O)Nc3ccc(C(F)(F)F)nc3)C2=O)cc1` (stereo partly shown) [Example 16], the concentration for a half-maximal effect (EC50) lay in the range of 0.01 to 0.1 µM.
In the case of `O=C(Nc1ccc(C(F)(F)F)cc1)N[C@@H]1CCCN(c2ccc(N3CCCC(CO)C3)nc2)C1=O` (stereo partly shown) [Example 64], the concentration for a half-maximal effect (EC50) lay in the range of 0.1 to 1 µM.
For `O=C(Nc1ccc(C(F)(F)F)nc1)N[C@@H]1CCCN(c2ccc(N3C[C@H]4CC[C@@H](C3)O4)cc2)C1=O` [Example 47], the EC50 is 0.1 to 1 µM.
Take `O=C(Nc1ccc(C(F)(F)F)cc1)N[C@@H]1CCCN(c2ccc(N3CC(O)C(F)C3)cc2)C1=O` (stereo partly shown) [Example 74]: the EC50 was ≤ 0.01 µM.
Consider `O=C(Nc1ccc(Cl)cc1)N[C@@H]1CCCN(c2ccc(N3CCC(O)(C(F)(F)F)CC3)cc2)C1=O` [Example 100], for which the EC50 was ≤ 0.01 µM.
Under `COCC1COCCN1c1ccc(N2CCC[C@@H](NC(=O)Nc3ccc(C(F)(F)F)nc3)C2=O)cc1` (stereo partly shown) [Example 22] stands 0.1 to 1 µM; under `O=C(Nc1ccc(Cl)cc1F)N[C@@H]1CCCN(c2ccc(N3CC[C@@H](F)C3)nc2)C1=O` [Example 105], ≤ 0.01 µM; under `COCC1CCCN1c1ccc(N2CCC[C@@H](NC(=O)Nc3ccc(C(F)(F)F)cc3)C2=O)cc1` (stereo partly shown) [Example 66], ≤ 0.01 µM.

The term EC50 denotes the concentration needed to bring the measured effect to its halfway point.
